The term IC50 denotes the midpoint of a concentration-inhibition curve.

Test [1] has as its target T1, Recombinant ROCK1 (amino acids 1-477) (Homo sapiens, UniProt Q13464).
T1 construct: Recombinant ROCK1 (amino acids 1-477); by word order, ROCK1 from Carna Biosciences
The experiment in a line: ROCK inhibition assay, LANCE Ultra TR-FRET kinase assay (ROCK1). The test is classed as biochemical. The following applies: 1 μM ATP, 50 nM ULight-CREBtide substrate. The method in brief: (§1)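 Reaction buffer 50 mM HEPES pH 7.5, 10 mM MgCl2, 1 mM EGTA, 2 mM DTT; kinase, ULight-CREBtide (50 nM) and ATP (ROCK1 1 μM, ROCK2 4 μM) react 1 h at room temperature. Phospho-Ser133 detected by europium antibody after 10 mM EDTA stop, TR-FRET ex 320 nm; IC50 calculated.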
(TR-FRET usually uses a lanthanide donor and a delayed reading to cut background.)

Test [2] addresses T2, Recombinant ROCK2 (amino acids 5-554) (Homo sapiens, UniProt O75116).
T2 construct: ROCK2 (amino acids 5-554); by word order, ROCK2 from SignalChem
The experiment in a line: ROCK inhibition assay, LANCE Ultra TR-FRET kinase assay (ROCK2). In kind it is biochemical. The following applies: 4 μM ATP, 50 nM ULight-CREBtide substrate. In a few lines:
as §1

SMILES strings stand for the structures.

T1 sequence (Q13464 1-477): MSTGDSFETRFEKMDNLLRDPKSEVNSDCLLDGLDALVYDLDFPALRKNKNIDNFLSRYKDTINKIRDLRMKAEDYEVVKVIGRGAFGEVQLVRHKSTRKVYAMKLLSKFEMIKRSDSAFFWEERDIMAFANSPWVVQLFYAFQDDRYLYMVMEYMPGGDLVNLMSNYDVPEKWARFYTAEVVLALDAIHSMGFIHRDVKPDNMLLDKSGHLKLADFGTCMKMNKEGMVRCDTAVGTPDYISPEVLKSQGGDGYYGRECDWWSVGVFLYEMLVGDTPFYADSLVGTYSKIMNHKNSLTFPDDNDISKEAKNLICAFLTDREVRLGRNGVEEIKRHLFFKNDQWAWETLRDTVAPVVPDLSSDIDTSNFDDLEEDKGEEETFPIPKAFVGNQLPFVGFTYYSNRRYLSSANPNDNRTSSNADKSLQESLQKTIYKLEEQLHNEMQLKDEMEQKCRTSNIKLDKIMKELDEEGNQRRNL
T2 sequence (O75116 5-554): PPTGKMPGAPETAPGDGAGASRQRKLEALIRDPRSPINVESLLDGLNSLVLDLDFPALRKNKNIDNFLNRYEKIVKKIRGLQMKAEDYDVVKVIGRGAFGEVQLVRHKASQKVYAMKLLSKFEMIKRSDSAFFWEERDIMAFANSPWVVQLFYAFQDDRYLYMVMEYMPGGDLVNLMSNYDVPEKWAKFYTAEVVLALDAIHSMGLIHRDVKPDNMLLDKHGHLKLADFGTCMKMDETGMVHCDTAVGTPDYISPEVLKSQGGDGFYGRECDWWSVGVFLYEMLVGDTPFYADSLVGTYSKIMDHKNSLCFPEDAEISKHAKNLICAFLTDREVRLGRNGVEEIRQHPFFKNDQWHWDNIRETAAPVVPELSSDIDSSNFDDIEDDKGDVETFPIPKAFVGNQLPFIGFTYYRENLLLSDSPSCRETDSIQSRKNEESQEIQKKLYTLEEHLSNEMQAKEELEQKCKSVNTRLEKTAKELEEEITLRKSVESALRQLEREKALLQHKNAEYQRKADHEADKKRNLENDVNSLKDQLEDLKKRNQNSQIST

In the case of `CN1CCc2cc(NC(=O)c3cccc(Cn4ccc5cc(-c6ccnc(N)c6)ccc5c4=O)c3)ccc2C1` [Compound 189], the half-maximal inhibitory concentration (IC50) in test [1] and in test [2] was under 10 nM each time.

For the compound `Cc1nocc1-c1ccc2c(=O)n(Cc3cc(F)cc(C(=O)Nc4ccc5c(c4)CCNC5)c3)ccc2c1` [Compound 162], the 50% inhibitory concentration (IC50) in test [1] and in test [2] was under 10 nM throughout.

For the compound `Cc1nocc1-c1ccc2c(=O)n(Cc3cccc(NC(=O)C4COC4)c3)ccc2c1` [Compound 348], the IC50 lay within 11 to 100 nM in test [1] and 10 to 100 nM in test [2].

As to `CNC(=O)c1cccc(Cn2ccc3cc(-c4conc4C)ncc3c2=O)c1` [Compound 241], the IC50 in test [1] was in the range of 101 to 500 nM; in test [2] it was 10 to 100 nM.

For the compound `O=C(Nc1cccc(Cn2ccc3cc(-c4c[nH]nc4C(F)F)ccc3c2=O)c1)C1COC1` [Compound 343], the results for the IC50 in test [1] and in test [2] were 101 to 500 nM and 10 to 100 nM, respectively.

`Cc1n[nH]cc1-c1cc2ccn(Cc3cc(F)cc(C(=O)NC4CCOCC4)c3)c(=O)c2cn1` [Compound 253]: the results for the IC50 in test [1] and in test [2] were 11 to 100 nM and under 10 nM, respectively.

Turning to `Nc1cc(-c2ccc3c(=O)n(Cc4cccc(C(=O)NC5CCOCC5)c4)ccc3c2)ccn1` [Compound 194], the results for the IC50 in test [1] and in test [2] were 101 to 500 nM and 10 to 100 nM, respectively.

As for `Cc1nocc1-c1ccc2c(=O)n(Cc3cccc(C(=O)NCCO)c3)ccc2c1` [Compound 102], the IC50 was over 501 nM in test [1] and 10 to 100 nM in test [2].

Consider `O=C(NCC1COC1)c1cccc(Cn2ccc3cc(-c4c[nH]nc4C(F)F)ccc3c2=O)c1` [Compound 58], for which the half-inhibitory concentration (IC50) in test [1] is 11 to 100 nM; in test [2] it was under 10 nM.

On to `[2H]C([2H])([2H])NC(=O)c1cccc(Cn2ccc3cc(-c4cn[nH]c4C(F)(F)F)ccc3c2=O)c1` [Compound 278], for which the IC50 is 11 to 100 nM in test [1] and under 10 nM in test [2].

Turning to `[2H]C([2H])([2H])NC(=O)c1cccc(C(C)n2ccc3cc(-c4cn[nH]c4C(F)F)ccc3c2=O)c1` (stereo not drawn) [Compound 288], the IC50 is 11 to 100 nM in test [1] and under 10 nM in test [2].

For `Cc1nocc1-c1ccc2c(=O)n(Cc3cccc(C(=O)Nc4ccon4)c3)ccc2c1` [Compound 90], the IC50 was over 501 nM in test [1] and 100 to 500 nM in test [2].

Consider `[2H]C([2H])([2H])NC(=O)c1cccc([C@@H](C)n2cnc3cc(-c4ccnn4C)ccc3c2=O)c1` [Compound 477], for which the values for the IC50 in test [1] and in test [2] were 11 to 100 nM and under 10 nM, respectively.

On to `CC(=O)Nc1cccc(Cn2ccc3cc(-c4c[nH]nc4C(F)(F)F)ccc3c2=O)c1` [Compound 337], for which the IC50 in test [1] lay in the range of 101 to 500 nM; in test [2], 10 to 100 nM.

In the case of `O=C(NC1COC1)c1cccc(Cn2ccc3cc(N4CCOCC4)ccc3c2=O)c1` [Compound 207], the 50% inhibitory concentration (IC50) in test [1] was 11 to 100 nM; in test [2] it was 100 to 500 nM.

For the compound `CNC(=O)c1cccc(C(C)n2ccc3cc(-c4cn[nH]c4C(F)(F)F)ccc3c2=O)c1` (stereo not drawn) [Compound 279], the IC50 in test [1] was 11 to 100 nM; in test [2] it was under 10 nM.

Consider `CNC(=O)c1cccc(Cn2cc(CC(C)O)c3cc(-c4cn[nH]c4Cl)ccc3c2=O)c1` (stereo not drawn) [Compound 560], for which the 50% inhibitory concentration (IC50) in test [1] and in test [2] was under 10 nM each time.

Consider `Cc1nocc1-c1ccc2c(=O)n(Cc3cccc(C(=O)NCC4CCN(C)CC4)c3)cnc2c1` [Compound 417], for which the IC50 in test [1] and in test [2] was under 10 nM in each case.

For `CNC(=O)c1cccc(Cn2ccc3cc(N4CCO[C@@H](C)C4)ccc3c2=O)c1` [Compound 331], the IC50 in test [1] was over 501 nM; in test [2], 100 to 500 nM.

For the compound `CNC(=O)c1cccc([C@@H](C)n2cnc3cc(-c4cn[nH]c4F)ncc3c2=O)c1` [Compound 570], the half-maximal inhibitory concentration (IC50) in test [1] and in test [2] was under 10 nM each time.

In the case of `Cc1nocc1-c1ccc2c(=O)n(Cc3cc(F)cc(C(=O)NCC4COC4)c3)ccc2c1` [Compound 145], the concentration for half-maximal inhibition (IC50) lay in the range of 101 to 500 nM in test [1] and 10 to 100 nM in test [2].

Source of the values: patent US12064426B2, “Selective inhibitors of ROCK1 and ROCK2 protein kinases and uses thereof” (GENOSCO Inc., priority 2021, dated 2024).
